The assay has as its target T1, CCL8 (Homo sapiens, UniProt P80075).
T1 construct: SUMO (in-house protein only) (cleaved yes); made in house; host or cells: Escherichia coli RosettaGami 2 (DE3)
T1 sequence (P80075 24-99): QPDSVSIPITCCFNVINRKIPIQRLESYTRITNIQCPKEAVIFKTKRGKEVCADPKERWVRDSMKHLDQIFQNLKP
In words: Fluorescence polarisation (anisotropy) assay. It counts as binding. The following applies: BK1.1FITC Ala mutants, CCL8. The source says:
FIG. 14. Characterisation of P672_PEP-FITC by fluorescence polarisation. […] Residue C30 was mutated to A to avoid an unpaired cysteine residue. The residues corresponding to the above peptide are wholly contained within the CCL8-binding region of P672_RHIPU transferred in the hybrid evasin P672:EVA1 (SEQ ID 76, see FIG. 5). […] (SEQ ID NO: 90). FIG. 14(A). […] The curve was fitted to the two site-total and non-specific binding model in GraphPad Prism 6. Data are shown as mean and SEM of three independent experiments, with each independent experiment performed as three technical replicates. The affinity constant Kd was calculated in GraphPad Prism from the curve fit with the standard error reported.
FIG. 14(B). […] The measured fluorescence anisotropy (y-axis) of P672_PEP-FITC (50 nM) following binding to a fixed dose (1 μM)) of CCL7, CCL8, CCL18 and CXCL1 (negative control). […] Statistical significance was determined using one-way ANOVA with Sidak's correction for multiple comparisons using Graph Pad Prism 6. **=p<0.005, ****=P<0.00005, ns=not significant.
FIG. 15(C). […] In each case 100 μM (++) or […] (+) of P672_PEP was incubated with P672_PEP-FITC (50 nM)/chemokine (1 μM CCL7 and CCL18; 500 nM CCL8) and the resulting anisotropy measured. […] Experiment carried out in triplicate where each data point is the average of one experiment carried out in technical triplicate. Mean with SEM shown and statistical significance was determined using one-way ANOVA with Sidak's correction for multiple comparisons using Graph Pad Prism 6. *=p<0.05, ***=p<0.0005, ****=P<0.00005, ns=not significant.
Fluorescence polarization assays were performed using a Clariostar (BMG Tech) plate reader with the supplied FITC excitation and emission filters using 96 half area well plates (Corning). The buffer used (FP assay buffer) was 50 mM HEPES, 150 mM NaCl, 0.1% BSA, 0.002% TWEEN-20, 0.2% DMSO, pH 7.4 and the final volume in each well was 30 μL. Polarization was converted to anisotropy using the equation A=(2*P)/(3−P) where P is polarization and A is anisotropy. For each peptide tested the gain was set to 35 mP and adjusted to a well containing fluorescent peptide only. The polarization of the emitted light in the FITC emission channel was then determined. Experiments were performed as two technical and three biological replicates. Screening of P672 peptide fragments was achieved through incubation of each peptide (50 nM) with 1 μM CCL8 (Peprotech) for 30 minutes in FP assay buffer and the resulting anisotropy of the emitted light determined as above. The chemokine cross binding screen was performed by incubating 1 μM chemokine (Peprotech) with 50 nM BK1.1FITC for half an hour in FP assay buffer and the resulting anisotropy of the emitted light determined as above. […] The anisotropy was plotted as a function of CCL8 concentration and fitted to the equation: Y=Bmax*X/(KD+X)+NS*X+Background, where Y is the measured anisotropy, X is the concentration of CCL8 added, Bmax is the maximum binding, KD is the equilibrium dissociation constant, NS is the slope of the nonlinear regression and Background is the anisotropy when no CCL8 is present, in Graph Pad Prism. Displacement assays were carried out with CCL7, CCL8, and CCL18 (Peprotech, 1 μM). […] For all FP assays, the experiments were carried out as two technical and three biological replicates.

Residues, ends and D or L forms follow the SMILES beside them. *: point of attachment. FITC = O=C1OC2(c3ccc(O)cc3Oc3cc(O)ccc32)c2ccc(NC(=S)*)cc21

As to `CC(C)[C@H](NC(=O)[C@@H]1CCCN1C(=O)[C@H](CCCCN)NC(=O)[C@H](Cc1ccccc1)NC(=O)[C@H](Cc1ccccc1)NC(=O)[C@H](CC(=O)O)NC(=O)[C@H](CCC(=O)O)NC(=O)[C@H](Cc1ccc(O)cc1)NC(=O)[C@H](CC(=O)O)NC(=O)[C@H](CCC(=O)O)NC(=O)[C@H](C)NC(=O)[C@H](CCC(=O)O)NC(=S)Nc1ccc2c(c1)C(=O)OC21c2ccc(O)cc2Oc2cc(O)ccc21)C(=O)N[C@H](C(=O)N[C@@H](C)C(=O)N[C@@H](Cc1ccc(O)cc1)C(=O)N[C@@H](Cc1ccccc1)C(N)=O)[C@@H](C)O` [D18A] ({FITC}-EAEDYEDFFKPVTAYF-NH2), the “Fold change (Kd versus WT)” value was found to be 2.5.

With `CC(C)[C@H](NC(=O)[C@@H]1CCCN1C(=O)[C@H](CCCCN)NC(=O)[C@H](Cc1ccccc1)NC(=O)[C@H](Cc1ccccc1)NC(=O)[C@H](CC(=O)O)NC(=O)[C@H](CCC(=O)O)NC(=O)[C@H](Cc1ccc(O)cc1)NC(=O)[C@H](C)NC(=O)[C@H](CCC(=O)O)NC(=O)[C@H](CC(=O)O)NC(=O)[C@H](CCC(=O)O)NC(=S)Nc1ccc2c(c1)C(=O)OC21c2ccc(O)cc2Oc2cc(O)ccc21)C(=O)N[C@H](C(=O)N[C@@H](C)C(=O)N[C@@H](Cc1ccc(O)cc1)C(=O)N[C@@H](Cc1ccccc1)C(N)=O)[C@@H](C)O` [D20A] ({FITC}-EDEAYEDFFKPVTAYF-NH2), the “Fold change (Kd versus WT)” value came to 1.5.

With `CC(C)[C@H](NC(=O)[C@@H]1CCCN1C(=O)[C@H](CCCCN)NC(=O)[C@H](Cc1ccccc1)NC(=O)[C@H](Cc1ccccc1)NC(=O)[C@H](C)NC(=O)[C@H](CCC(=O)O)NC(=O)[C@H](Cc1ccc(O)cc1)NC(=O)[C@H](CC(=O)O)NC(=O)[C@H](CCC(=O)O)NC(=O)[C@H](CC(=O)O)NC(=O)[C@H](CCC(=O)O)NC(=S)Nc1ccc2c(c1)C(=O)OC21c2ccc(O)cc2Oc2cc(O)ccc21)C(=O)N[C@H](C(=O)N[C@@H](C)C(=O)N[C@@H](Cc1ccc(O)cc1)C(=O)N[C@@H](Cc1ccccc1)C(N)=O)[C@@H](C)O` [D23A] ({FITC}-EDEDYEAFFKPVTAYF-NH2), the “Fold change (Kd versus WT)” value was determined as 1.5.

Take `CC(C)[C@H](NC(=O)[C@@H]1CCCN1C(=O)[C@H](CCCCN)NC(=O)[C@H](Cc1ccccc1)NC(=O)[C@H](Cc1ccccc1)NC(=O)[C@H](CC(=O)O)NC(=O)[C@H](CCC(=O)O)NC(=O)[C@H](Cc1ccc(O)cc1)NC(=O)[C@H](CC(=O)O)NC(=O)[C@H](CCC(=O)O)NC(=O)[C@H](CC(=O)O)NC(=O)[C@H](C)NC(=S)Nc1ccc2c(c1)C(=O)OC21c2ccc(O)cc2Oc2cc(O)ccc21)C(=O)N[C@H](C(=O)N[C@@H](C)C(=O)N[C@@H](Cc1ccc(O)cc1)C(=O)N[C@@H](Cc1ccccc1)C(N)=O)[C@@H](C)O` [E17A] ({FITC}-ADEDYEDFFKPVTAYF-NH2): the “Fold change (Kd versus WT)” value was found to be 1.2.

Consider `CC(C)[C@H](NC(=O)[C@@H]1CCCN1C(=O)[C@H](CCCCN)NC(=O)[C@H](Cc1ccccc1)NC(=O)[C@H](Cc1ccccc1)NC(=O)[C@H](CC(=O)O)NC(=O)[C@H](CCC(=O)O)NC(=O)[C@H](Cc1ccc(O)cc1)NC(=O)[C@H](CC(=O)O)NC(=O)[C@H](C)NC(=O)[C@H](CC(=O)O)NC(=O)[C@H](CCC(=O)O)NC(=S)Nc1ccc2c(c1)C(=O)OC21c2ccc(O)cc2Oc2cc(O)ccc21)C(=O)N[C@H](C(=O)N[C@@H](C)C(=O)N[C@@H](Cc1ccc(O)cc1)C(=O)N[C@@H](Cc1ccccc1)C(N)=O)[C@@H](C)O` [E19A] ({FITC}-EDADYEDFFKPVTAYF-NH2), for which the “Fold change (Kd versus WT)” value is 2.1.

Regarding `CC(C)[C@H](NC(=O)[C@@H]1CCCN1C(=O)[C@H](CCCCN)NC(=O)[C@H](Cc1ccccc1)NC(=O)[C@H](Cc1ccccc1)NC(=O)[C@H](CC(=O)O)NC(=O)[C@H](C)NC(=O)[C@H](Cc1ccc(O)cc1)NC(=O)[C@H](CC(=O)O)NC(=O)[C@H](CCC(=O)O)NC(=O)[C@H](CC(=O)O)NC(=O)[C@H](CCC(=O)O)NC(=S)Nc1ccc2c(c1)C(=O)OC21c2ccc(O)cc2Oc2cc(O)ccc21)C(=O)N[C@H](C(=O)N[C@@H](C)C(=O)N[C@@H](Cc1ccc(O)cc1)C(=O)N[C@@H](Cc1ccccc1)C(N)=O)[C@@H](C)O` [E22A] ({FITC}-EDEDYADFFKPVTAYF-NH2), the “Fold change (Kd versus WT)” value stood at 4.0.

On to `CC(C)[C@H](NC(=O)[C@@H]1CCCN1C(=O)[C@H](CCCCN)NC(=O)[C@H](Cc1ccccc1)NC(=O)[C@H](C)NC(=O)[C@H](CC(=O)O)NC(=O)[C@H](CCC(=O)O)NC(=O)[C@H](Cc1ccc(O)cc1)NC(=O)[C@H](CC(=O)O)NC(=O)[C@H](CCC(=O)O)NC(=O)[C@H](CC(=O)O)NC(=O)[C@H](CCC(=O)O)NC(=S)Nc1ccc2c(c1)C(=O)OC21c2ccc(O)cc2Oc2cc(O)ccc21)C(=O)N[C@H](C(=O)N[C@@H](C)C(=O)N[C@@H](Cc1ccc(O)cc1)C(=O)N[C@@H](Cc1ccccc1)C(N)=O)[C@@H](C)O` [F24A] ({FITC}-EDEDYEDAFKPVTAYF-NH2), for which the “Fold change (Kd versus WT)” value was found to be 1.5.

For `CC(C)[C@H](NC(=O)[C@@H]1CCCN1C(=O)[C@H](CCCCN)NC(=O)[C@H](C)NC(=O)[C@H](Cc1ccccc1)NC(=O)[C@H](CC(=O)O)NC(=O)[C@H](CCC(=O)O)NC(=O)[C@H](Cc1ccc(O)cc1)NC(=O)[C@H](CC(=O)O)NC(=O)[C@H](CCC(=O)O)NC(=O)[C@H](CC(=O)O)NC(=O)[C@H](CCC(=O)O)NC(=S)Nc1ccc2c(c1)C(=O)OC21c2ccc(O)cc2Oc2cc(O)ccc21)C(=O)N[C@H](C(=O)N[C@@H](C)C(=O)N[C@@H](Cc1ccc(O)cc1)C(=O)N[C@@H](Cc1ccccc1)C(N)=O)[C@@H](C)O` [F25A] ({FITC}-EDEDYEDFAKPVTAYF-NH2), the “Fold change (Kd versus WT)” value amounted to 4.6.

Take `CC(C)[C@H](NC(=O)[C@@H]1CCCN1C(=O)[C@H](CCCCN)NC(=O)[C@H](Cc1ccccc1)NC(=O)[C@H](Cc1ccccc1)NC(=O)[C@H](CC(=O)O)NC(=O)[C@H](CCC(=O)O)NC(=O)[C@H](Cc1ccc(O)cc1)NC(=O)[C@H](CC(=O)O)NC(=O)[C@H](CCC(=O)O)NC(=O)[C@H](CC(=O)O)NC(=O)[C@H](CCC(=O)O)NC(=S)Nc1ccc2c(c1)C(=O)OC21c2ccc(O)cc2Oc2cc(O)ccc21)C(=O)N[C@H](C(=O)N[C@@H](C)C(=O)N[C@@H](Cc1ccc(O)cc1)C(=O)N[C@@H](C)C(N)=O)[C@@H](C)O` [F32A] ({FITC}-EDEDYEDFFKPVTAYA-NH2): the “Fold change (Kd versus WT)” value is given as 2.3.

Turning to `CC(C)[C@H](NC(=O)[C@@H]1CCCN1C(=O)[C@H](C)NC(=O)[C@H](Cc1ccccc1)NC(=O)[C@H](Cc1ccccc1)NC(=O)[C@H](CC(=O)O)NC(=O)[C@H](CCC(=O)O)NC(=O)[C@H](Cc1ccc(O)cc1)NC(=O)[C@H](CC(=O)O)NC(=O)[C@H](CCC(=O)O)NC(=O)[C@H](CC(=O)O)NC(=O)[C@H](CCC(=O)O)NC(=S)Nc1ccc2c(c1)C(=O)OC21c2ccc(O)cc2Oc2cc(O)ccc21)C(=O)N[C@H](C(=O)N[C@@H](C)C(=O)N[C@@H](Cc1ccc(O)cc1)C(=O)N[C@@H](Cc1ccccc1)C(N)=O)[C@@H](C)O` [K26A] ({FITC}-EDEDYEDFFAPVTAYF-NH2), the “Fold change (Kd versus WT)” value came out at 0.8.

Regarding `CC(C)[C@H](NC(=O)[C@@H]1CCCN1C(=O)[C@H](CCCCN)NC(=O)[C@H](Cc1ccccc1)NC(=O)[C@H](Cc1ccccc1)NC(=O)[C@H](CC(=O)O)NC(=O)[C@H](CCC(=O)O)NC(=O)[C@H](Cc1ccc(O)cc1)NC(=O)[C@H](CC(=O)O)NC(=O)[C@H](CCC(=O)O)NC(=O)[C@H](CC(=O)O)NC(=O)[C@H](CCC(=O)O)NC(=S)Nc1ccc2c(c1)C(=O)OC21c2ccc(O)cc2Oc2cc(O)ccc21)C(=O)N[C@@H](C)C(=O)N[C@@H](C)C(=O)N[C@@H](Cc1ccc(O)cc1)C(=O)N[C@@H](Cc1ccccc1)C(N)=O` [T29A] ({FITC}-EDEDYEDFFKPVAAYF-NH2), the “Fold change (Kd versus WT)” value was determined as 2.0.

For the origin of these results see patent publication US20200247855A1, “THERAPY AND DIAGNOSTICS” (OXFORD UNIVERSITY INNOVATION LIMITED, priority 2017, published 2020).
